Reference: patent US5470858A, “Derivatives of (hetero)aromatic ethers and thioethers having antihyperlipidemic activity, process for their preparation and pharmaceutical compositions containing them” (Pierrel SpA, priority 1991, dated 1995)
Where two headings read alike, the source gives them in different places.

What was measured:
Assay type in all cases: in vivo
[1] = test system: hyperlipaemic SD male rats; test: Hypolipemizing activity, 15 days experimental model, modified diet; settings: rat, oral; for Cholesterol VLDL + LDL (percent variation vs hyperlipaemic controls): by difference between total and HDL; for Hepatic index (percent variation vs hyperlipaemic controls): index = (Liver weight/body weight) × 100
Protocol: (§1) The hypolipemizing activity of the compounds of the present invention has been evaluated in the rat using SD male animals (Charles River) of an initial weight of 150 g, housed in controlled environment at a temperature of 21°±1° C., relative humidity 60% and a 12 hours light/dark cycle.
Experimental models have been used in which the animals are rendered hiperlipaemic by "ad libitum" food administration with a modified Nath diet (Atherosclerosis 30, 1978, pag. 45-46) having the following composition:
In the second model a diet was used which was modified with respect to the former one by the following parameters: […]
The animals were fasted with this diet for 15 days consecutively, during which they received the pharmacological treatment once a day by oral route and were sacrificed 24 hours after the last administration. At the sacrifice time the blood was removed for the lipid determination and the liver was removed as well to be weighed and used for the evaluation of the catalase enzyme as the index of the peroxysomes proliferation and thus of hepatotoxicity.
This experimental model has been used only for the molecules which in the first model were found more promising, and has permitted to get values of the serum lipids from 2 to 3 times higher than the normal values both for the total cholesterol and for the triglycerides.
This experimental model was used to:
a) evaluate the effectiveness on a less marked hyperlipoproteinaemy, and
b) assess mainly at the hepatic level the tolerability of the compounds during a more extended treatment.
(§2) The determination of the triglycerides, of the total cholesterol and of the cholesterol associated to the HDL has been effected by means of a commercial enzymatic kit. The concentration of the cholesterol associated to VLDL+LDL has been determined by difference between total cholesterol and HDL.
On the basis of the indications provided by this screening the most interesting compounds have been evaluated by the 15 days experimental model which permits both the evaluation of the effectiveness in the case of a hyperlipaemia less marked and more constant, and the tolerability control of the compounds during a longer term treatment.
In this case too the results (reported in the following table 2) are expressed as the percent variation with respect to the hyperlipaemic controls to which carboxymethylcellulose as 0.5% in water was administered by oral route at the dose of 10 ml/kg/day. The same vehicle was used for the suspension of the compounds being tested, administered at the doses; of 50 and 100 mg/kg/day by oral route.

[2] = test system: catalase enzyme; test: Hepatic tolerability, 15 days at high dose: catalase enzyme activity in liver (index of peroxysomes proliferation); settings: rat liver, oral, 15 days, 300 mg/kg/day; absolute values; solvent 539,8
Protocol: (§3) The hypolipemizing activity of the compounds of the present invention has been evaluated in the rat using SD male animals (Charles River) of an initial weight of 150 g, housed in controlled environment at a temperature of 21°±1° C., relative humidity 60% and a 12 hours light/dark cycle. The animals were fasted with this diet for 15 days consecutively, during which they received the pharmacological treatment once a day by oral route and were sacrificed 24 hours after the last administration. At the sacrifice time the blood was removed for the lipid determination and the liver was removed as well to be weighed and used for the evaluation of the catalase enzyme as the index of the peroxysomes proliferation and thus of hepatotoxicity. In order to evaluate the hepatic tolerability of the compounds of interest they have been administered for 15 days at a high dose (300 mg/kg/day) according to the same conditions of the previous experiment.24 hours after the last treatment the animals have been sacrificed, and the liver has been removed and stored at -20° C. up to the time of dosing the activity of the catalase enzyme (Methods of enzymatic analysis, vol.2, pag. 673, 1974 edit. H. U. Bergmeyer, Verlag Chemie International).

[3] = test system: liver; test: Hepatic tolerability, 15 days at high dose: hepatic index; settings: rat, oral, 15 days, 300 mg/kg/day; absolute values; solvent 5,4
Protocol: as §3

[4] = test system: hyperlipaemic SD male rats; test: Hypolipemizing activity, 5 days experimental model, modified Nath diet; settings: rat, oral; for change in vivo at 100 mg/kg/day / change in vivo at 300 mg/kg/day: 120 h; for Hepatic index (percent variation vs hyperlipaemic controls): index = (Liver weight/body weight) × 100
Protocol: as §1
Experimental models have been used in which the animals are rendered hiperlipaemic by "ad libitum" food administration with a modified Nath diet (Atherosclerosis 30, 1978, pag. 45-46) having the following composition: […]
hydrogenated coconut oil
In the first model the animals have been fed with this diet for 5 consecutive days, during which they received the pharmacological treatment once a day by oral route and were sacrificed 2 hours after the last administration.
At the time of the sacrifice the blood was removed, for the lipid determination, as well as the liver the weight of which was the index of a possible hepatomegaly.
By this experimental model the concentration of the serum lipids attained very high values which, in the control group, was four times the normal values for the total cholesterol and the triglycerides.
as §2
The results obtained in the experimental model of the 5 days duration for some compounds representative of the invention are reported in the following table 1. The data are expressed as percent variation with respect to the hyperlipaemic controls to which carboxymethylcellulose as 0.5% in water at the dose of 10 ml/kg/day by oral route was administered. The same vehicle was used for the suspension of the tested compounds at the doses of 100 and 300 mg/kg/day by oral route.

[5] = 100 mg/kg/day, by difference between total and HDL, read-out: Cholesterol VLDL + LDL (percent variation vs hyperlipaemic controls)
[6] = 100 mg/kg/day, read-out: Cholesterol HDL (percent variation vs hyperlipaemic controls)
[7] = 100 mg/kg/day, read-out: Total Cholesterol (percent variation vs hyperlipaemic controls)
[8] = 100 mg/kg/day, read-out: Triglycerides (percent variation vs hyperlipaemic controls)
[9] = 300 mg/kg/day, by difference between total and HDL, read-out: Cholesterol VLDL + LDL (percent variation vs hyperlipaemic controls)
[10] = 300 mg/kg/day, read-out: Cholesterol HDL (percent variation vs hyperlipaemic controls)
[11] = 300 mg/kg/day, read-out: Total Cholesterol (percent variation vs hyperlipaemic controls)
[12] = 300 mg/kg/day, read-out: Triglycerides (percent variation vs hyperlipaemic controls)

SMILES	Cholesterol HDL (percent variation vs hyperlipaemic controls) ([1]; 50 mg/kg/day)	Total Cholesterol (percent variation vs hyperlipaemic controls) ([1]; 50 mg/kg/day)	Triglycerides (percent variation vs hyperlipaemic controls) ([1]; 50 mg/kg/day)	Cholesterol VLDL + LDL (percent variation vs hyperlipaemic controls) ([1]; 50 mg/kg/day)	Hepatic index (percent variation vs hyperlipaemic controls) ([1]; 50 mg/kg/day)	Cholesterol HDL (percent variation vs hyperlipaemic controls) ([1]; 100 mg/kg/day)	Total Cholesterol (percent variation vs hyperlipaemic controls) ([1]; 100 mg/kg/day)	Triglycerides (percent variation vs hyperlipaemic controls) ([1]; 100 mg/kg/day)	Cholesterol VLDL + LDL (percent variation vs hyperlipaemic controls) ([1]; 100 mg/kg/day)	Hepatic index (percent variation vs hyperlipaemic controls) ([1]; 100 mg/kg/day)	Catalase enzyme activity [2]	Hepatic index (Liver weight/body weight) × 100 [3]	change in vivo at 100 mg/kg/day [4, 5]	change in vivo at 100 mg/kg/day [4, 6]	change in vivo at 100 mg/kg/day [4, 7]	change in vivo at 100 mg/kg/day [4, 8]	change in vivo at 300 mg/kg/day [4, 9]	change in vivo at 300 mg/kg/day [4, 11]	change in vivo at 300 mg/kg/day [4, 12]	Hepatic index (percent variation vs hyperlipaemic controls) ([4]; 300 mg/kg/day)	further results
CC(C)COC(=O)c1ccc(OCC(CSc2nc3c(N)ncnc3n2[C@@H]2O[C@H](CO)[C@@H](O)[C@H]2O)=NNC(N)=O)cc1 [Example 33]	+15,6%	-29,7%	-20,5%	-34,7%	+2,2%	+19,4%	-33,8%	-30,6%	-39,7%	+3,9%	378,5 umoli/min/mg proteins	5,3	-37.4%	22.2%	-34.8%	-27.8%	-46.9%	-44.1%	-43%	-2,5%	change in vivo at 300 mg/kg/day [4, 10]: 16.6%; Hepatic index (percent variation vs hyperlipaemic controls) ([4]; 100 mg/kg/day): -1,6%
CC(C)COC(=O)c1ccc(OCC(O)CSc2nc3ccccc3s2)cc1 (stereo not drawn) [Example 6, 2-[3-[(p-isobutyloxycarbonyl)-phenoxy]-2-hydroxy-propylthio]-benzothiazole]	+1,0%	-16,1%	-18,2%	-19,0%	-1,7%	+4,3%	-19,0%	-49,1%	-21,7%	-4,1%	504,6 umoli/min/mg proteins	5,9	-18.8%	7.7%	-17%	-15.6%	-27.9%	-24.9%	-23.4%	+0,4%	Hepatic index (percent variation vs hyperlipaemic controls) ([4]; 100 mg/kg/day): +2,2%
CC(C)COC(=O)c1ccc(OCC(=O)CSc2nc3c(N)ncnc3n2[C@@H]2O[C@H](CO)[C@@H](O)[C@H]2O)cc1 [Example 28]	+11,3%	-23,3%	-27,3%	-28,1%	+0,6%	+21,0%	-35,3%	-35,1%	-41,7%	-1,9%	479,7 umoli/min/mg proteins	5,6	-15.1%	5.7%	-14%	-16.3%	-33.7%	-31.3%	-22.5%	-5,5%	change in vivo at 300 mg/kg/day [4, 10]: 22.7%
CC(C)COC(=O)c1ccc(OCC(O)CSc2nc3ccccc3o2)cc1 (stereo not drawn) [Example 11]	-9,9%	-36,6%	-48,5%	-39,7%	+0,2%	+16,1%	-34,4%	-46,8%	-40,2%	-3,1%	444,7 umoli/min/mg proteins	5,8	-22.8%	9.5%	-21.4%	-21.6%	-39.7%	-37.1%	-30.3%	-1,7%	change in vivo at 300 mg/kg/day [4, 10]: 14.9%; Hepatic index (percent variation vs hyperlipaemic controls) ([4]; 100 mg/kg/day): -2,3%
CC(C)COC(=O)c1ccc(OCC(=O)CSc2nc3ccccc3s2)cc1 [Example 2, 2-[3-[(p-isobutyloxycarbonyl)phenoxy]-2-oxo-propylthio]-benzothiazole]	-24,5%	-13,1%	-0,2%	-12,0%	+3,5%	-0,4%	-12,9%	-18,7%	-14,0%	-4,5%	603,0 umoli/min/mg proteins	6,0	-14.7%	10.4%	-13.2%	-22.1%	-21.8%	-19.5%	-32.5%	-1,6%	change in vivo at 300 mg/kg/day [4, 10]: 13.9%; Hepatic index (percent variation vs hyperlipaemic controls) ([4]; 100 mg/kg/day): -6,5%
